Source: article PMC10107299, “Neutralizing the Impact of the Virulence Factor LecA from Pseudomonas aeruginosa on Human Cells with New Glycomimetic Inhibitors” (Angewandte Chemie (International Ed. in English), 2023)

Tested on: LecA-treated H1299 cells
Assay: Scratch-wound healing assay
Assay type: cell-based, human
Settings: 3.9 μM LecA; for Wound closure after 24 h: 100 μM inhibitor
Text: The opportunistic bacterium P. aeruginosa depends on favorable circumstances to infect the host, such as a suppressed immunity or wounded skin.[34, 35] Chronic infection of wounds with P. aeruginosa increases the risk of nosocomial spread, are difficult to treat and after systemic dissemination can result in a fatal outcome in patients. In a previous study, we investigated the effect of the fucose‐binding P. aeruginosa lectin LecB on epithelial wound healing.[36] […] Here, we investigated whether LecA also impairs the same physiological process. To this end, H1299 cell monolayers were grown, and after scratching with a pipette tip, wound closure was monitored microscopically (Figure 5a). […] The mode of action of LecA in the wound healing process remains elusive. […] Importantly, when LecA was added to the cells together with L2 (10 μM and 100 μM, respectively), the wound healed at a similar rate to the control in absence of LecA. Remarkably, in presence of 10 μM L2, cell migration was restored to about 70 % compared to the negative control, and the wound closed by 80 % after 24 h of incubation with 100 μM L2 (Figure 5b). […]
using NIS-Element Confocal 4.20 from Nikon and ImageJ 1.52a from Laboratory for Optical and Computational Instrumentation.
Cell proliferation (MTT) assay […]
Subsequently, 10 μL of MTT labelling solution was added to each well and the cells were incubated for another 4 h at 37 °C. […] The next day, the absorbance of the samples was measured at 550 nm using a BioTek microplate reader (BioTek Instruments Inc., Winooski, VT, USA). The data were analyzed using Microsoft Excel and GraphPad Prism […]
2 x 10^5 cells were seeded on 12-well plates and formed a confluent monolayer after 24 h. […] The samples were imaged with an EVOS microscope (PEQLAB by VWR Life Sciences, Avantor Performance Materials Inc., Center Valley, PA, USA) and analyzed with ImageJ and Microsoft Excel. […] Experiment was repeated independently three times (N = 3) and evaluated with two tailed, […]

| Structure (SMILES) | Wound closure after 24 h | Cell migration / wound closure restored after 24 h (10 μM inhibitor) |
| --- | --- | --- |
| Cc1ccc(NC(=O)CCc2ccc(O[C@@H]3O[C@H](CO)[C@H](O)[C@H](O)[C@H]3O)cc2)cc1S(=O)(=O)O [Compound K2] | about 50% | – |
| O=C(CCc1ccc(O[C@@H]2O[C@H](CO)[C@H](O)[C@H](O)[C@H]2O)cc1)Nc1ccc(CCc2ccc(NC(=O)CCc3ccc(O[C@@H]4O[C@H](CO)[C@H](O)[C@H](O)[C@H]4O)cc3)cc2S(=O)(=O)O)c(S(=O)(=O)O)c1 [Compound L2] | 80% | about 70% |
